Measurements from article PMC11487390, “Design and Synthesis of 1,3-Diarylpyrazoles and Investigation of Their Cytotoxicity and Antiparasitic Profile” (International Journal of Molecular Sciences, 2024).
Where a name gives a salt, the structure may show the parent alone. Read-outs that look alike come from different tables or passages of the source.

Legend:
[1] = Cytotoxicity assay, MRC-5SV2 cells, resazurin, 3 days; format: cell-based; details: human, MRC-5 cells, highest concentration 64 µM
Protocol: The series of final products (13–69) was investigated in vitro on the human fetal lung fibroblast cell line MRC-5 (Table 1) to assess cytotoxicity toward normal (i.e., non-malignant) human cells. […] As explained earlier, these are important pathogens for humans or cattle (T. b. brucei) and a persistent need for new therapeutics exists for these parasites. As a part of the antiparasitic tests, cytotoxicity against primary mouse macrophages (PMMs) was also evaluated. These murine cells serve as host cells for parasites in the L. infantum assay. Therefore, the murine macrophage assay not only offers additional cytotoxicological insight but is also essential to interpreting the readout of the L. infantum assay.
(§1) The MRC-5SV2 human lung fibroblast cell line was cultured in MEM + Earle’s salts-medium, supplemented with 2 mM L-glutamine, 16.5 mM NaHCO3, and 5% inactivated fetal calf serum. For evaluating the antileishmanial activity, the L. infantum MHOM/MA(BE)/67 strain was used. This strain was maintained in a Golden hamster (Mesocricetus auratus). Amastigotes were collected from the spleen of an infected donor hamster using differential centrifugation. Primary peritoneal mouse macrophages were used as host cells and were collected 2 days after peritoneal stimulation with a 2% potato starch suspension. For the intracellular T. cruzi assays, the Tulahuen CL2 strain was used that expresses β-galactosidase. The strain was maintained in MRC-5SV2 cells in MEM medium. The T. b. brucei Squib 427 strain or T. b. rhodesiense STIB-900 strain was used for screening against the extracellular African trypanosomes. The strains were maintained in Hirumi’s Modified Iscove’s medium-9 (HMI-9), supplemented with 10% inactivated fetal calf serum. All cultures and assays were performed at 37 °C with 5% CO2.
(§2) Compound stock solutions were prepared in 100% DMSO at 20 mM. The compounds were serially pre-diluted by robotic plate production (4-fold) in DMSO followed by a further (intermediate) dilution in demineralized water to assure a final in-test DMSO concentration of <1%. Identical test plates containing 10 µL of the different concentrations of each compound were produced for the different assays. For the cytotoxicity assays, 5 concentrations per compound were tested (64–16–4–1–0.25 µM). For the parasitic assays, 10 concentrations per compound were tested, ranging from 64 µM to 0.2 nM.
Assays were performed in sterile 96-well microtiter plates, each well containing 10 µL of the watery compound dilutions together with 190 µL of MRC-5SV2 inoculum (1.5 × 10^5 cells/mL). Cell growth was compared to untreated control wells (100% cell growth) and medium-control wells (0% cell growth). After 3 days incubation, MRC-5 viability was assessed fluorimetrically after addition of 50 μL resazurin per well (final concentration of 10 µg mL^−1). After 4 h at 37 °C, fluorescence was measured (λex 550 nm, λem 590 nm). The results were expressed as % reduction in cell growth/viability compared to positive (100% growth–0% inhibition) and negative (0% growth–100% inhibition) control wells from which EC50 values (50% effective concentrations) were derived using an excel macro that calculates the interpolation of the concentrations corresponding to the flanking points, just above and just below 50% inhibition.

[2] = system: Trypanosoma cruzi Tulahuen CL2 strain; experiment: Intracellular T. cruzi assay in MRC-5 cells (β-galactosidase/CPRG, 7 days); format: cell-based; details: Trypanosoma cruzi, TULAHUEN, MRC5, 168 h, intracellular in MRC-5 cells
Protocol: as §1, §2
MRC-5 cells were infected in 96-well plates using a harvested T. cruzi inoculum (4 × 10^3 MRC-5 cells/well + 4 × 10^4 parasites/well) and exposed to 10 µL of the compound dilutions (200 µL/well total volume). Parasite growth determined after 7 days of incubation and compared to untreated infected controls following the addition of the substrate CPRG (chlorophenolred ß-D-galactopyranoside): 50 µL/well of a stock solution containing 15.2 mg CPRG + 250 µL Nonidet in 100 mL PBS. The absorbance was measured spectrophotometrically at 540 nm after 4 h incubation at 37 °C and EC50 values were calculated.

[3] = system: L. infantum MHOM/MA(BE)/67 strain; experiment: L. infantum intracellular amastigote assay in PMM (Giemsa, 5 days); format: cell-based, Leishmania infantum; details: Leishmania infantum, 120 h
Protocol: as §1, §2
Primary peritoneal mouse macrophages (PMMs) were prepared in RPMI-1640 medium, supplemented with 2 mM L-glutamine, 16.5 mM NaHCO3, and 5% inactivated fetal calf serum. The macrophages are infected after 48 h with spleen-derived L. infantum amastigotes (3 × 10^4 PMM + 4.5 × 10^5 parasites/well). The compounds were added after 2 h of infection. After 5 days incubation, parasite burdens (mean number of amastigotes/macrophage) were assessed microscopically after staining with a 10% Giemsa solution and EC50 values were calculated.

[4] = system: T. b. brucei Squib 427 strain; experiment: T. b. brucei growth assay (resazurin, 3 days); format: cell-based, Trypanosoma brucei brucei; details: Trypanosoma brucei, 72 h
Protocol: as §1, §2
(§3) Parasite suspensions (1.5 × 10^4 T. b. brucei/well or 4 × 10^3 T. b. rhodesiense/well) in HMI-9 medium were exposed in a total volume of 200 µL to 10 µL of the compound dilutions Parasite growth was assessed fluorimetrically after 3 days of incubation by the addition of 50 µL resazurin per well. After 6 h (T. b. rhodesiense) or 24 h (T. b. brucei) at 37 °C, fluorescence was measured (λex 550 nm, λem 590 nm), from which viability and EC50 values could be determined.

[5] = system: T. b. rhodesiense STIB-900 strain; experiment: T. b. rhodesiense growth assay (resazurin, 3 days); format: cell-based, Trypanosoma brucei rhodesiense; details: Trypanosoma brucei, RHODESIENSE, 72 h
Protocol: as §1, §2, §3

[6] = MRC-5SV2 human lung fibroblast cells
[7] = read-out: L. inf. (EC50, µM), amastigotes in PMM, 5 days
[8] = read-out: T. b. bruc. (EC50, µM), 3 days
[9] = read-out: T. b. rhod. (EC50, µM), 3 days

| SMILES | EC50 at 3 days [1, 6] [µM] | also measured |
| --- | --- | --- |
| COc1ccc(-c2nn(-c3ccccc3)cc2CNCCc2ccccn2)cc1 [Compound 64, N-((3-(4-methoxyphenyl)-1-phenyl-1H-pyrazol-4-yl)methyl)-2-(pyridin-2-yl)ethan-1-amine hydrochloride] | 28.9 | EC50 [2]: 7.15 µM; EC50 [3, 7]: 8.06 µM; EC50 [4, 8]: 1.7 µM; EC50 [5, 9]: 1.57 µM |
| c1ccc(-n2cc(CNCCc3ccccn3)c(-c3ccc4c(c3)OCO4)n2)cc1 [Compound 59, N-((3-(benzo[d] [1,3]dioxol-5-yl)-1-phenyl-1H-pyrazol-4-yl)methyl)-2-(pyridin-2-yl)ethan-1-amine hydrochloride] | 26.6 | EC50 [2]: 6.71 µM; EC50 [3, 7]: 8.06 µM; EC50 [4, 8]: 1.64 µM; EC50 [5, 9]: 1.61 µM |
| c1ccc(Cc2cn(-c3ccccc3)nc2-c2ccc3c(c2)OCCO3)cc1 [Compound 49, 4-benzyl-3-(2,3-dihydrobenzo[b][1,4]dioxin-6-yl)-1-phenyl-1H-pyrazole] | 59.5 | EC50 [2]: 7.35 µM; EC50 ([3]; amastigotes in PMM, 5 days, read-out: L. inf. (EC50)): 38.1 µM; EC50 ([4]; 3 days, read-out: T. b. bruc. (EC50)): 29.3 µM; EC50 ([5]; 3 days, read-out: T. b. rhod. (EC50)): 16.5 µM |
| CN1CCN(CCNCc2cn(-c3ccccc3)nc2-c2ccc3c(c2)OCCO3)CC1 [Compound 27, N-((3-(2,3-dihydrobenzo[b][1,4]dioxin-6-yl)-1-phenyl-1H-pyrazol-4-yl)methyl)-2-(4-methylpiperazin-1-yl)ethan-1-amine trihydrochloride] | 6.94 |  |
| Fc1ccc(CNCc2cn(-c3ccccc3)nc2-c2ccc3c(c2)OCO3)cc1 [Compound 55, 1-(3-(benzo[d] [1,3]dioxol-5-yl)-1-phenyl-1H-pyrazol-4-yl)-N-(4-fluorobenzyl)methanamine hydrochloride] | 1 |  |
| COc1ccc(-c2nn(-c3ccccc3)cc2CNCCc2ccc(F)cc2)cc1OC [Compound 67, N-((3-(3,4-dimethoxyphenyl)-1-phenyl-1H-pyrazol-4-yl)methyl)-2-(4-fluorophenyl)ethan-1-amine hydrochloride] | 1.22 |  |
| Fc1ccc(Cc2cn(-c3ccccc3)nc2-c2ccc3c(c2)OCCO3)cc1 [Compound 51, 3-(2,3-dihydrobenzo[b][1,4]dioxin-6-yl)-4-(4-fluorobenzyl)-1-phenyl-1H-pyrazole] | > 64 |  |
| Fc1ccc(CCNCc2cn(-c3ccccc3)nc2-c2ccc3c(c2)OCO3)cc1 [Compound 56, N-((3-(benzo[d] [1,3]dioxol-5-yl)-1-phenyl-1H-pyrazol-4-yl)methyl)-2-(4-fluorophenyl)ethan-1-amine hydrochloride] |  | EC50 at 3 days [1]: 6.65 µM |
| O=C(Nc1ccccc1)c1cn(-c2ccccc2)nc1-c1ccc2c(c1)OCCO2 [Compound 30, 3-(2,3-dihydrobenzo[b][1,4]dioxin-6-yl)-N,1-diphenyl-1H-pyrazole-4-carboxamide] | 9.19 |  |
| c1ccc(-n2cc(CNCCN3CCOCC3)c(-c3ccc4c(c3)OCO4)n2)cc1 [Compound 61, N-((3-(benzo[d] [1,3]dioxol-5-yl)-1-phenyl-1H-pyrazol-4-yl)methyl)-2-morpholinoethan-1-amine dihydrochloride] | 17.1 |  |
| COc1ccc(-c2nn(-c3ccccc3)cc2CNCCc2ccncc2)cc1 [Compound 62, N-((3-(4-methoxyphenyl)-1-phenyl-1H-pyrazol-4-yl)methyl)-2-(pyridin-4-yl)ethan-1-amine hydrochloride] | 9.66 |  |
| CN1CCN(Cc2cn(-c3ccccc3)nc2-c2ccc3c(c2)OCCO3)CC1 [Compound 24, 1-((3-(2,3-dihydrobenzo[b][1,4]dioxin-6-yl)-1-phenyl-1H-pyrazol-4-yl)methyl)-4-methylpiperazine] | 18.2 |  |
| c1ccc(-n2cc(CNCCc3cccnc3)c(-c3ccc4c(c3)OCO4)n2)cc1 [Compound 58, N-((3-(benzo[d] [1,3]dioxol-5-yl)-1-phenyl-1H-pyrazol-4-yl)methyl)-2-(pyridin-3-yl)ethan-1-amine hydrochloride] | 19.4 |  |
| Fc1ccc(CNCc2cn(-c3ccccc3)nc2-c2ccc3c(c2)OCCO3)cc1 [Compound 16, 1-(3-(2,3-dihydrobenzo[b][1,4]dioxin-6-yl)-1-phenyl-1H-pyrazol-4-yl)-N-(4-fluorobenzyl)methanamine hydrochloride] | 6.65 |  |
| c1ccc(-n2cc(CN3CCCC3)c(-c3ccc4c(c3)OCCO4)n2)cc1 [Compound 23, 3-(2,3-dihydrobenzo[b][1,4]dioxin-6-yl)-1-phenyl-4-(pyrrolidin-1-ylmethyl)-1H-pyrazole oxalate] | 18.2 |  |
| c1ccc(-n2cc(CNCCc3cccnc3)c(-c3ccc4c(c3)OCCO4)n2)cc1 [Compound 20, N-((3-(2,3-dihydrobenzo[b][1,4]dioxin-6-yl)-1-phenyl-1H-pyrazol-4-yl)methyl)-2-(pyridin-3-yl)ethan-1-amine hydrochloride] | 8.95 |  |
| CN1CCN(CCNC(=O)c2cn(-c3ccccc3)nc2-c2ccc3c(c2)OCCO3)CC1 [Compound 43, 3-(2,3-dihydrobenzo[b][1,4]dioxin-6-yl)-N-(2-(4-methylpiperazin-1-yl)ethyl)-1-phenyl-1H-pyrazole-4-carboxamide] | 19 |  |
| c1ccc(CNCc2cn(-c3ccccc3)nc2-c2ccc3c(c2)OCCO3)cc1 [Compound 15, N-benzyl-1-(3-(2,3-dihydrobenzo[b][1,4]dioxin-6-yl)-1-phenyl-1H-pyrazol-4-yl)methanamine hydrochloride] | 5.42 |  |
| c1ccc(-n2cc(CNCCc3ccncc3)c(-c3ccc4c(c3)OCO4)n2)cc1 [Compound 57, N-((3-(benzo[d] [1,3]dioxol-5-yl)-1-phenyl-1H-pyrazol-4-yl)methyl)-2-(pyridin-4-yl)ethan-1-amine hydrochloride] | 4 |  |
| COc1ccc(-c2nn(-c3ccccc3)cc2CNCCc2cccnc2)cc1 [Compound 63, N-((3-(4-methoxyphenyl)-1-phenyl-1H-pyrazol-4-yl)methyl)-2-(pyridin-3-yl)ethan-1-amine hydrochloride] | 16.4 |  |
| c1ccc(CCNCc2cn(-c3ccccc3)nc2-c2ccc3c(c2)OCCO3)cc1 [Compound 17, N-((3-(2,3-dihydrobenzo[b][1,4]dioxin-6-yl)-1-phenyl-1H-pyrazol-4-yl)methyl)-2-phenylethan-1-amine hydrochloride] | 0.56 |  |
